# Laboratory results from patent US6927039B2, “Enzymatic process” (Nanobiodesign Limited, priority 2000, dated 2005).
# Where two headings read alike, the source gives them in different places.
# Key:
# cytochrome P450 BM3 [1] = biological target: T1, cytochrome P450 BM3 (Priestia megaterium, UniProt P14779); experiment: Alkali assay of NADP+ production in whole E.coli BL21(DE3) cells expressing P450 BM3 (in vivo assay); settings: for R (Remark): substrate or no-interaction with P450 BM3; for Vmax: alkali assay; for Vmax / time at which the plateau of the A360 alkali product curve is reached: NADPH 1.5 mM; for time at which the plateau of the A360 alkali product curve is reached: substrate concentration about 0.8 mM; for substrate concentration above which the linear region of NADPH oxidation was found in the first 25 min: ~0-25 min after NADPH addition
# T1 sequence (P14779 1-1049): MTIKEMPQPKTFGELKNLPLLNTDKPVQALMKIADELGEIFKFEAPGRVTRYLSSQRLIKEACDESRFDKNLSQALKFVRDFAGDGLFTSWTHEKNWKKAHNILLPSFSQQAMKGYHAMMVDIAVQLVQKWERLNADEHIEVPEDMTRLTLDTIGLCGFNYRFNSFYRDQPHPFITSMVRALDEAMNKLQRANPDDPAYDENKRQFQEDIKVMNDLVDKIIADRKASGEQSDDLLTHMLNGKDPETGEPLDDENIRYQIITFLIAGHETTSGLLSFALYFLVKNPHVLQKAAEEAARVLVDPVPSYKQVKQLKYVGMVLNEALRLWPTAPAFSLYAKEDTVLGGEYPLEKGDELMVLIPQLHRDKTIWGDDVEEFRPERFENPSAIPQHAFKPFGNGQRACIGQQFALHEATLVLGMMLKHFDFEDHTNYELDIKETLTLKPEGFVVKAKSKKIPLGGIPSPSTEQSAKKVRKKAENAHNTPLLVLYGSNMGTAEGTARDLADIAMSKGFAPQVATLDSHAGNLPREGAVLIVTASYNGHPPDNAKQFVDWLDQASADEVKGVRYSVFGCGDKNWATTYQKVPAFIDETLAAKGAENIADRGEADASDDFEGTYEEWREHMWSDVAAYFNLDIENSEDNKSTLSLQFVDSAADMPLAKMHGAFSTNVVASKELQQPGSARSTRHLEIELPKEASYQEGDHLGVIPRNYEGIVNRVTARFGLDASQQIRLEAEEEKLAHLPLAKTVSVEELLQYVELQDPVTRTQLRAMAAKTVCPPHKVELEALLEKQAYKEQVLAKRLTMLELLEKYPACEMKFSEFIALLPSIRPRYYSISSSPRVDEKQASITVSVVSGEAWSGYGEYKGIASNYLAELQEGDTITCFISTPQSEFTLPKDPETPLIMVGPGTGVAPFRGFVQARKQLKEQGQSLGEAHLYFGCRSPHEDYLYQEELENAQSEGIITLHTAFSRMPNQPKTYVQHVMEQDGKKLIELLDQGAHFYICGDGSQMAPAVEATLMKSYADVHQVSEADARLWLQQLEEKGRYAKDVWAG
# Procedure: The hydroxylating activity of whole cells expressing cytochrome P450 BM3 was measured in terms of NADP^+ production. […] The assay has been adapted in a microtitre plate format as follows. A single colony from freshly transformed E.coli BL21(pT7Bm3Z) cells was inoculated into 170 μl LB/ampicillin (120 μg/ml) in a microtitre plate well. Cells were grown to an OD600˜0.8 before being induced with 1 mM IPTG. After incubation at 37° C. for 16 hours after induction, the cells were harvested and washed once with 100 mM potassium phosphate buffer pH 8.0. The cell pellet was stored in the −20° C. freezer before running the alkali test within the next few days. The cell pellet was then resuspended at 1:1.3 dilution in 100 mM potassium phosphate buffer pH 8.0. to give an OD600 of about 0.4, to which the substrate at the desired concentration was added (stock solutions of substrates as described for the binding and catalytic assays). A control consisting of cells in phosphate buffer added with the same amount of potassium carbonate solution or ethanol or N,N-dimethylformamide, without substrate was run for every sample. All samples were incubated at room temperature overnight. NADPH at 1.5 mM was then added to the samples and at 1 h after NADPH addition, an aliquot (typically 70 μl) was transferred in a new microtitre plate to which was added the same volume (typically 70 μl) of 0.3 M HCl, so that the final pH in the mixture is about 2. The aliquots were incubated for at least 10 min at room temperature, to ensure complete destruction of the remaining reduced NADPH. An aliquot (typically 70 μl) was then removed and transferred in a new microtitre plate with 280 μl of 9 M NaOH to yield a solution of a pH of about 14.8. The mixture was immediately mixed thoroughly and placed in the dark. The product was left to develop in dark for at least 2.5 h at room temperature, after which the absorbance at 360 nm or the emission at 455 nm (λex=360 nm) was measured.
# cytochrome P450 BM3 [2] = biological target: T1, cytochrome P450 BM3; experiment: Substrate binding by spectral titration of the haem high spin band, purified enzyme (in vitro); design: expressed in transfected cells; host or cells: E. coli BL21(DE3) transformed with pT7Bm3Z; species or system Bacillus megaterium
# Procedure: Substrate Binding and NADPH Consumption Assays. Substrate binding was followed in a Hewlett-Packard 8452A diode array spectrophotometer, equipped with a Hewlett-Packard peltier temperature controller 89090 by monitoring the increase in the high spin band of the haem at 390 nm, upon titration with different substrates. The dissociation constant Kd was calculated by fitting the obtained data to the equation [ES]=((ΔA390-ΔA421)max·[S]free)/(Kd+[S]free) where [ES]=(ΔA390-ΔA421)/(ΔA392-ΔA421)max·[P450 BM3] and [S]free=[S]added−[ES].
# (§1) NADPH consumption was followed at 340 nm using a Δε340=6.22 mM^−1·cm^−1. Both assays were performed at 20° C. using P450 BM3 in 100 mM potassium phosphate buffer, pH 8.0. Reaction was initiated by addition to the substrate bound enzyme of NADPH to a final concentration of 130-150 μM. In the kinetics assay the rate constant kcat was calculated from the linear part of the decrease in A340 with time, which lasted at least for the first 4 sec. The enzyme concentration typically varied between 0.4 and 0.8 μM in the binding assay and between 8 and 25 nM in the catalytic assay. Substrate stock solutions were freshly prepared the day of the assay. Fatty acid stock solutions were in 50 mM potassium carbonate, SDS was easily dissolved in water, while TCE stock solutions were prepared in ethanol. If appropriate, stocks of candidate agents may be prepared in, for example, N,N-dimethylformamide just before the assay. […] The confidence interval for Kd given in the results section is the mean±the standard deviation of at least four measurements, as calculated using the software Kaleidagraph. Similarly kcat was calculated by fitting data points to the Michaelis-Menten equation. Each data point is the mean of at least four measurements.
# cytochrome P450 BM3 [3] = biological target: T1, cytochrome P450 BM3; experiment: Hydrogen peroxide determination (uncoupling) by HRP/ABTS assay, purified enzyme; assay type: biochemical, Bacillus megaterium; design: expressed in transfected cells; host or cells: E. coli BL21(DE3) transformed with pT7Bm3Z; settings: 150 μM NADPH
# Procedure: Hydrogen Peroxide Determination. Uncoupled reactions were determined by measuring the production of hydrogen peroxide during substrate turnover using the horseradish peroxidase (HRP)/2′2-Azino-di(3-ethyl-benzathiazoline-6-sulphonic acid) (ABTS) assay as described by Childs and Bardsley (31). The extinction coefficient at 414 nm of the radical cation of ABTS was calculated to 32.95 mM^−1 cm^−1, in accordance with the published value. The assay mixture composition was essentially similar to that utilised during the substrate-dependent NADPH consumption assay (20-30 nM P450 BM3 in 100 mM potassium phosphate buffer pH 8.0, 150 μM NADPH, and at least 1.7 times higher substrate concentration relative to NADPH concentration). When all NADPH was consumed (as judged from the disappearance of the 340 nm peak) the hydrogen peroxide produced was measured. Uncoupling in whole cells was measured following essentially the same assay in whole cells in 100 mM potassium phosphate buffer pH 8.0 incubated with substrate and NADPH as in the alkali method.
# cytochrome P450 BM3 [4] = biological target: T1, cytochrome P450 BM3; experiment: Substrate-dependent NADPH consumption assay at 340 nm, purified enzyme (in vitro); assay type: biochemical, Bacillus megaterium; design: expressed in transfected cells; host or cells: E. coli BL21(DE3) transformed with pT7Bm3Z; settings: NADPH 130-150 μM, 20° C., pH 8.0
# Procedure: as §1
# E.coli BL21(DE3) cells = experiment: Toxicity of substrate to the whole cells used in the assay; assay type: cell-based
# Procedure: When the initial rate of AA, LA, and SDS oxidation was plotted against substrate concentration a Michaelis-Menten-type curve was obtained as shown in FIG. 6. […] The kinetic parameters determined following the substrate-dependent NADPH oxidation with time in the whole-cell assay are given in Table 1. For all the three substrates the extent of uncoupling of P450 BM3 from substrate hydroxylation was also determined in a whole-cell assay. This was essentially an adaptation of the hydrogen peroxide quantification method of HRP with ABTS described for the experiments carried out on purified enzyme.
# The potential lethal effect that high concentrations of substrate may have on whole cells (as in the case of arachidonic acid at concentrations higher than 170 μM, FIG. 7A.) can be overcome without loss of sensitivity by successive small additions of substrate. The increase of the A360 signal with subsequent additions of SDS to whole cells expressing P450 BM3 is reported in FIG. 8, where it can be observed how the increase in the absorbance becomes limited by the NADPH concentration. At 1.5 h after NADPH addition, when SDS is supplied periodically to the cells an increase of about 45% in the NADP^+ production is seen, which should correspond to a ratio of sample A360 signal/blank signal of about 30. […]
# [5] = 20° C., 100 mM potassium phosphate buffer pH 8.0, read-out: Kd
Structure (SMILES),R (Remark) (cytochrome P450 BM3 [1]),Kd (cytochrome P450 BM3 [2]; [5]),% H2O2 (cytochrome P450 BM3 [3]),"ratio of sample A360 signal/blank signal (cytochrome P450 BM3 [1]; whole cells, SDS supplied periodically, 1.5 h after NADPH addition)",Vmax (cytochrome P450 BM3 [1]; whole cells),time at which the plateau of the A360 alkali product curve is reached (cytochrome P450 BM3 [1]; whole cells),substrate concentration above which the linear region of NADPH oxidation was found in the first 25 min (cytochrome P450 BM3 [1]; whole cells),"Kd (cytochrome P450 BM3 [2]; 20° C., 100 mM potassium phosphate buffer pH 8.0)",KM (cytochrome P450 BM3 [4]),kcat (cytochrome P450 BM3 [4]),"Kd (cytochrome P450 BM3 [2]; printed as an order-of-magnitude range in M, read-out: Kd)",toxicity to E.coli BL21(DE3) cells (E.coli BL21(DE3) cells),concentration above which the substrate has a lethal effect on whole cells (E.coli BL21(DE3) cells; E.coli BL21(DE3) cells expressing P450 BM3)
"ClC(Cl)C(Cl)Cl [TCE, 1,1,2,2-tetrachloroethane]",S,4010 ± 830 µM,0%,–,–,–,–,–,–,–,–,–,–
"CCCCCCCCCCCCOS(=O)(=O)[O-].[Na+] [SDS, sodium dodecyl sulphate]",S,11.5 ± 3.7 µM,0.63%,about 30,18.19 ± 1.12 nM NADP^+/min,3.5 h,higher than 300 μM,–,–,–,–,–,–
"CCCCCCCCCCCC(=O)O [LA, lauric acid]",S,135 ± 38.2 µM,0.66%,–,10.26 ± 0.87 nM NADP^+/min,7 h,higher than 200 μM,–,–,–,–,–,–
CCCCCC [n-hexane],N,–,–,–,–,–,–,n.o.,n.o.,n.o.,–,–,–
"CCCCC/C=C\C/C=C\C/C=C\C/C=C\CCCC(=O)O [AA, arachidonic acid]",S,–,0.11%,–,–,–,–,–,–,–,~0.1 µM,relatively high toxicity,higher than 170 μM
